# In ChEMBL document CHEMBL5375955, “Discovery of New Fusobacterium nucleatum Inhibitors to Attenuate Migratory Capability of Colon Cancer Cells by the Drug Repositioning Strategy” (J Med Chem, 2023):
# Calls of active or inactive are those of the source. No cut-off for these calls is given here.
# Test system: Fusobacterium nucleatum
# Assay: Antibacterial activity against Fusobacterium nucleatum ATCC 23726 assessed as bacterial growth inhibition incubated for 48 hrs by broth dilution susceptibility test
# Format: functional
# Details: not given
row,Structure (SMILES),MIC50
1,O=[N+]([O-])c1ccc(COc2ccc([N+](=O)[O-])c(C(F)(F)F)c2)o1,4 µg/mL
2,CS(=O)(=O)c1ccc(C(=O)C2C(=O)CCCC2=O)c(Cl)c1COCC(F)(F)F [TEMBOTRIONE],> 64 µg/mL
3,O=C(OCc1ccc([N+](=O)[O-])o1)c1ccc(C(F)(F)F)cc1[N+](=O)[O-],4 µg/mL
4,O=C(Nc1cc(Cl)cc([N+](=O)[O-])c1)c1ccc(C(F)(F)F)cc1[N+](=O)[O-],> 64 µg/mL
5,CS(=O)(=O)c1ccc(C(=O)C2C(=O)CCCC2=O)c([N+](=O)[O-])c1 [MESOTRIONE],32 µg/mL
6,O=C1OCCN1/N=C/c1ccc([N+](=O)[O-])o1 [FURAZOLIDONE],16 µg/mL
7,Cc1ncc([N+](=O)[O-])n1C [DIMETRIDAZOLE],1 µg/mL
8,NC(=O)c1ccc(NC(=O)c2ccc(C(F)(F)F)cc2[N+](=O)[O-])cc1,> 64 µg/mL

# Test system: MC-38
# Assay: Antiproliferative activity against mouse MC-38 cells assessed as inhibition of cell growth incubated for 48 hrs by CCK-8 assay
# Format: functional, cell-based
# Details: MC-38, 48 h
row,Structure (SMILES),IC50
1,O=[N+]([O-])c1ccc(COc2ccc([N+](=O)[O-])c(C(F)(F)F)c2)o1,38 µM
2,O=C(OCc1ccc([N+](=O)[O-])o1)c1ccc(C(F)(F)F)cc1[N+](=O)[O-],49 µM

# Test system: HCT-116
# Assay: Antiproliferative activity against human HCT-116 cells assessed as inhibition of cell growth incubated for 48 hrs by CCK-8 assay
# Format: functional, cell-based
# Details: HCT-116, 48 h
row,Structure (SMILES),IC50
1,O=[N+]([O-])c1ccc(COc2ccc([N+](=O)[O-])c(C(F)(F)F)c2)o1,52 µM
2,O=C(OCc1ccc([N+](=O)[O-])o1)c1ccc(C(F)(F)F)cc1[N+](=O)[O-],84 µM

# Test system: not listed separately
# Assay: Cytotoxicity against HUVEC cells assessed as inhibition of cell growth incubated for 48 hrs by CCK-8 assay
# Format: toxicity, cell-based
# Details: human
row,Structure (SMILES),IC50 at 48 h
1,O=[N+]([O-])c1ccc(COc2ccc([N+](=O)[O-])c(C(F)(F)F)c2)o1,9.6 µM
2,O=C(OCc1ccc([N+](=O)[O-])o1)c1ccc(C(F)(F)F)cc1[N+](=O)[O-],40 µM

# Test system: not listed separately
# Assay: Cytotoxicity against human L02 cells assessed as inhibition of cell growth incubated for 48 hrs by CCK-8 assay
# Format: toxicity, cell-based
# Details: not given
row,Structure (SMILES),IC50 at 48 h
1,O=[N+]([O-])c1ccc(COc2ccc([N+](=O)[O-])c(C(F)(F)F)c2)o1,21 µM
2,O=C(OCc1ccc([N+](=O)[O-])o1)c1ccc(C(F)(F)F)cc1[N+](=O)[O-],81 µM

# Test system: Fusobacterium nucleatum
# Assay: Antibacterial activity against Fusobacterium nucleatum ATCC 23726 assessed as bacterial growth inhibition at 8 ug/ml incubated for 72 hrs by turbidimeter analysis
# Format: functional, organism-based
# Details: dose 8.0 µg/ml
row,Structure (SMILES),Activity
1,O=C(OCc1ccc([N+](=O)[O-])o1)c1ccc(C(F)(F)F)cc1[N+](=O)[O-],Active

# Test system: Fusobacterium nucleatum
# Assay: Antibacterial activity against Fusobacterium nucleatum ATCC 23726 assessed as bacterial growth inhibition at 4 ug/ml incubated for 72 hrs by turbidimeter analysis
# Format: functional, organism-based
# Details: dose 4.0 µg/ml
row,Structure (SMILES),Activity
1,O=[N+]([O-])c1ccc(COc2ccc([N+](=O)[O-])c(C(F)(F)F)c2)o1,Active

# Test system: Fusobacterium nucleatum
# Assay: Antibacterial activity against Fusobacterium nucleatum ATCC 23726 assessed as bacterial growth inhibition incubated for 72 hrs by turbidimeter analysis
# Format: functional, organism-based
# Details: not given
row,Structure (SMILES),Activity
1,O=[N+]([O-])c1ccc(COc2ccc([N+](=O)[O-])c(C(F)(F)F)c2)o1,Dose-Dependent Effect
2,O=C(OCc1ccc([N+](=O)[O-])o1)c1ccc(C(F)(F)F)cc1[N+](=O)[O-],Dose-Dependent Effect

# Test system: Fusobacterium nucleatum
# Assay: Antibiofilm activity against Fusobacterium nucleatum ATCC 23726 assessed as inhibition of biofilm formation incubated for 48 hrs by crystal violet staining based assay
# Format: functional, organism-based
# Details: dose 0.5-16 µg/ml
row,Structure (SMILES),inhibition
1,O=[N+]([O-])c1ccc(COc2ccc([N+](=O)[O-])c(C(F)(F)F)c2)o1,Dose-Dependent Effect

# Test system: Escherichia coli
# Assay: Antibacterial activity against Escherichia coli […] assessed as bacterial growth inhibition incubated for 48 hrs by broth dilution susceptibility test
# Format: functional
# Details: not given
row,Structure (SMILES),MIC50
1,O=[N+]([O-])c1ccc(COc2ccc([N+](=O)[O-])c(C(F)(F)F)c2)o1,64 µg/mL
2,O=C(OCc1ccc([N+](=O)[O-])o1)c1ccc(C(F)(F)F)cc1[N+](=O)[O-],> 64 µg/mL

# Test system: Enterococcus faecalis
# Assay: Antibacterial activity against Enterococcus faecalis ATCC 29212 assessed as bacterial growth inhibition incubated for 48 hrs by broth dilution susceptibility test
# Format: functional
# Details: not given
row,Structure (SMILES),MIC50
1,O=[N+]([O-])c1ccc(COc2ccc([N+](=O)[O-])c(C(F)(F)F)c2)o1,64 µg/mL
2,O=C(OCc1ccc([N+](=O)[O-])o1)c1ccc(C(F)(F)F)cc1[N+](=O)[O-],> 64 µg/mL

# Test system: Staphylococcus aureus
# Assay: Antibacterial activity against Staphylococcus aureus ATCC 6538 assessed as bacterial growth inhibition incubated for 48 hrs by broth dilution susceptibility test
# Format: functional
# Details: not given
row,Structure (SMILES),MIC50
1,O=[N+]([O-])c1ccc(COc2ccc([N+](=O)[O-])c(C(F)(F)F)c2)o1,64 µg/mL
2,O=C(OCc1ccc([N+](=O)[O-])o1)c1ccc(C(F)(F)F)cc1[N+](=O)[O-],> 64 µg/mL

# Test system: Peptostreptococcus anaerobius
# Assay: Antibacterial activity against Peptostreptococcus anaerobius ATCC 27337 assessed as bacterial growth inhibition incubated for 48 hrs by broth dilution susceptibility test
# Format: functional
# Details: not given
row,Structure (SMILES),MIC50
1,O=[N+]([O-])c1ccc(COc2ccc([N+](=O)[O-])c(C(F)(F)F)c2)o1,32 µg/mL
2,O=C(OCc1ccc([N+](=O)[O-])o1)c1ccc(C(F)(F)F)cc1[N+](=O)[O-],> 64 µg/mL

# Test system: Akkermansia muciniphila
# Assay: Antibacterial activity against Akkermansia muciniphila ATCC BAA-835 assessed as bacterial growth inhibition incubated for 48 hrs by broth dilution susceptibility test
# Format: functional
# Details: not given
row,Structure (SMILES),MIC50
1,O=[N+]([O-])c1ccc(COc2ccc([N+](=O)[O-])c(C(F)(F)F)c2)o1,> 64 µg/mL
2,O=C(OCc1ccc([N+](=O)[O-])o1)c1ccc(C(F)(F)F)cc1[N+](=O)[O-],> 64 µg/mL

# Test system: Salmonella enterica subsp. enterica serovar Paratyphi B
# Assay: Antibacterial activity against Salmonella paratyphi B ATCC CMCC50094 assessed as bacterial growth inhibition incubated for 48 hrs by broth dilution susceptibility test
# Format: functional
# Details: not given
row,Structure (SMILES),MIC50
1,O=[N+]([O-])c1ccc(COc2ccc([N+](=O)[O-])c(C(F)(F)F)c2)o1,64 µg/mL
2,O=C(OCc1ccc([N+](=O)[O-])o1)c1ccc(C(F)(F)F)cc1[N+](=O)[O-],64 µg/mL

# Test system: Shigella flexneri
# Assay: Antibacterial activity against Shigella flexneri ATCC 12022 assessed as bacterial growth inhibition incubated for 48 hrs by broth dilution susceptibility test
# Format: functional
# Details: not given
row,Structure (SMILES),MIC50
1,O=[N+]([O-])c1ccc(COc2ccc([N+](=O)[O-])c(C(F)(F)F)c2)o1,> 64 µg/mL
2,O=C(OCc1ccc([N+](=O)[O-])o1)c1ccc(C(F)(F)F)cc1[N+](=O)[O-],> 64 µg/mL

# Test system: Lactobacillus acidophilus
# Assay: Antibacterial activity against Lactobacillus acidophilus ATCC CGMCC 1.577 assessed as bacterial growth inhibition incubated for 48 hrs by broth dilution susceptibility test
# Format: functional
# Details: not given
row,Structure (SMILES),MIC50
1,O=[N+]([O-])c1ccc(COc2ccc([N+](=O)[O-])c(C(F)(F)F)c2)o1,> 64 µg/mL
2,O=C(OCc1ccc([N+](=O)[O-])o1)c1ccc(C(F)(F)F)cc1[N+](=O)[O-],64 µg/mL
